pIC50, pKd: −log10 of the molar value. Where a SMILES comes first, the peptide text is derived from it. [ ]: non-standard residue; d: D form. The star is where a group is joined. ξ: configuration not given here. DTPA = O=C(O)CN(CCN(CC(=O)O)CC(=O)O)CCN(CC(=O)O)CC(=O)*; Phe(4-guanidino) = N=C(N)Nc1ccc(C[C@H](N)C(=O)O)cc1; ξGly(4-Pip(1-amidino)) = N=C(N)N1CCC(C(N)C(=O)O)CC1; ξPhe(4-guanidino) = N=C(N)Nc1ccc(CC(N)C(=O)O)cc1; X1 = CC(C)C[C@@H](CN[C@@H](CC(C)C)C(N)=O)N*; ξGly(piperidin-4-yl) = NC(C(=O)O)C1CCNCC1; Cha = N[C@@H](CC1CCCCC1)C(=O)O; Tle = CC(C)(C)[C@H](N)C(=O)O; Aba(Apy) = not defined here
What was measured:
[1] = In vitro urine stability assay (HPLC) of In-111 labeled peptide; assay type: in vitro ADME; conditions: for % of compound present at 4 hours in urine / % of peptide at 4 hours after incubation at 37EC, Urine / HPLC Evaluation of Urine Stability at 37EC, Urine, t = 0: rat urine; for remaining at 4 h: rat, t = 4 h
Procedure: (§1) All reagents were purchased from Sigma unless otherwise noted. The peptide and ^111InCl3 in 0.05 N HCl were incubated in a sodium acetate/ascorbic acid buffer for 30 minutes at room temperature. The reaction was diluted with 5% ethanol/95% PBS before using in subsequent in vitro assays.
(§2) Human serum was purchased from Sigma (H 1388). The labeled peptide was incubated in either human serum or rat urine at 37EC for the specified amount of time. An aliquot was filtered through a 0.45 μm syringe filter prior to HPLC injection.

[2] = In vitro serum stability assay (HPLC) of In-111 labeled peptide; assay type: in vitro ADME, human; conditions: for remaining at 4 h: t = 4 h
Procedure: as §1, §2

[3] = target: neurotensin receptors (Homo sapiens, UniProt P30989); assay: Competitive binding assay on frozen tissue sections of receptor-positive human tumors vs radioiodinated native neurotensin; conditions: for pIC50: C-terminus modified derivatives
Text: Frozen tissue sections from receptor-positive human tumors were used in a competitive binding assay.

[4] = 37EC, read-out: HPLC Evaluation of Urine Stability at 37EC, Urine, t = 4 h
[5] = human serum, 37EC, read-out: HPLC Evaluation of Serum Stability at 37EC, Serum, t = 4 h
[6] = Table 4, rat urine, read-out: Urine Stability, Urine (t = 4 h)
[7] = Table 4, human serum, read-out: Serum Stability, Serum (t = 4 h)

Chain of neurotensin receptors (P30989 whole entry): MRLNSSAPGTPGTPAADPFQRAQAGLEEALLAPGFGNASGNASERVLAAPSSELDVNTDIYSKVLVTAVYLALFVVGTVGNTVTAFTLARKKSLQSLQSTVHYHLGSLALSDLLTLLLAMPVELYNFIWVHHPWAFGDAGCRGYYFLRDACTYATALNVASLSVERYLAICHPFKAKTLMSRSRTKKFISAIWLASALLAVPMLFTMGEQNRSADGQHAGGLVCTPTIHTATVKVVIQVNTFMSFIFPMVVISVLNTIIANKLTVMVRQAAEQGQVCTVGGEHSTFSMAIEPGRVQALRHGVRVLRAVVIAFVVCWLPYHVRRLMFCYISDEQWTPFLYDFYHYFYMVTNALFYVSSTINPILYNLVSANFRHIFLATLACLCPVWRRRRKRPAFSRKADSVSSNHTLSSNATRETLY

| Compound | % of peptide at 4 hours after incubation at 37EC, Urine ([1]; 37EC) [%] | % of peptide at 4 hours after incubation at 37EC, Serum ([2]; human serum, 37EC) [%] | pKd ([3]; Table 3) | other results |
| --- | --- | --- | --- | --- |
| CC[C@H](C)[C@H](NC(=O)[C@H](Cc1ccc(O)cc1)NC(=O)[C@@H]1CCCN1C(=O)[C@H](CCCNC(=N)N)NC(=O)C(NC(=O)[C@@H]1CCCN1C(=O)[C@@H](CCCCN)NC(=O)CN(CCN(CCN(CC(=O)O)CC(=O)O)CC(=O)O)CC(=O)O)C1CCN(C(=N)N)CC1)C(=O)N[C@@H](CC(C)C)C(=O)O (single isomer, unassigned) [Compound II, DTPA-DLys-Pro-Gly(PipAm)-Arg-Pro-Tyr-Ile-Leu-OH] | 16.6 | 19.5 |  | % of compound present at 4 hours in urine ([1]; 37EC): 16.6%; % of compound present at 4 hours in serum ([2]; human serum, 37EC): 19.5%; pKd ([3]; Table 1): 8.57 |
| CC[C@H](C)[C@H](NC(=O)[C@H](Cc1ccc(O)cc1)NC(=O)[C@@H]1CCCN1C(=O)[C@H](CCCNC(=N)N)NC(=O)C(CCc1ccnc(N)n1)NC(=O)[C@@H]1CCCN1C(=O)[C@@H](CCCCN)NC(=O)CN(CCN(CCN(CC(=O)O)CC(=O)O)CC(=O)O)CC(=O)O)C(=O)N[C@@H](CC(C)C)C(=O)O (single isomer, unassigned) [Compound III, DTPA-DLys-Pro-Aba(Apy)-Arg-Pro-Tyr-Ile-Leu-OH] | 6.0 | 4.3 |  | % of compound present at 4 hours in urine ([1]; 37EC): 6.0%; % of compound present at 4 hours in serum ([2]; human serum, 37EC): 4.3%; pKd ([3]; Table 1): 7.17 |
| CC(C)C[C@H](NC(=O)[C@@H](NC(=O)[C@H](Cc1ccc(O)cc1)NC(=O)[C@@H]1CCCN1C(=O)[C@H](CCCNC(=N)N)NC(=O)C(NC(=O)[C@@H]1CCCN1C(=O)[C@@H](CCCCN)NC(=O)CN(CCN(CCN(CC(=O)O)CC(=O)O)CC(=O)O)CC(=O)O)C1CCN(C(=N)N)CC1)C(C)(C)C)C(=O)O (single isomer, unassigned) [Compound X, DTPA-DLys-Pro-Gly(PipAm)-Arg-Pro-Tyr-tBuGly-Leu-OH] | 63.0 | 87.5 | 8.46 | pIC50 [3]: 8.46 |
| CC[C@H](C)[C@H](NC(=O)[C@H](Cc1ccc(O)cc1)NC(=O)[C@@H]1CCCN1C(=O)C(Cc1ccc(NC(=N)N)cc1)NC(=O)[C@H](CCCNC(=N)N)NC(=O)[C@@H]1CCCN1C(=O)[C@@H](CCCCN)NC(=O)CN(CCN(CCN(CC(=O)O)CC(=O)O)CC(=O)O)CC(=O)O)C(=O)N[C@@H](CC(C)C)C(=O)O (single isomer, unassigned) [DTPA-DLys-Pro-Arg-(4-Gu)Phe-Pro-Tyr-Ile-Leu-OH] | 0 | 16.3 | 7.08 |  |
| CC[C@H](C)[C@H](NC(=O)[C@H](Cc1ccc(O)cc1)NC(=O)[C@@H]1CCCN1C(=O)C(CCc1ccnc(N)n1)NC(=O)[C@H](CCCNC(=N)N)NC(=O)[C@@H]1CCCN1C(=O)[C@@H](CCCCN)NC(=O)CN(CCN(CCN(CC(=O)O)CC(=O)O)CC(=O)O)CC(=O)O)C(=O)N[C@@H](CC(C)C)C(=O)O (single isomer, unassigned) [DTPA-DLys-Pro-Arg-Aba(Apy)-Pro-Tyr-Ile-Leu-OH] | 4.7 | 15.7 | 5.92 |  |
| CC[C@H](C)[C@H](NC(=O)[C@H](Cc1ccc(O)cc1)NC(=O)[C@@H]1CCCN1C(=O)[C@H](CCCNC(=N)N)NC(=O)C(Cc1ccc(NC(=N)N)cc1)NC(=O)[C@@H]1CCCN1C(=O)[C@@H](CCCCN)NC(=O)CN(CCN(CCN(CC(=O)O)CC(=O)O)CC(=O)O)CC(=O)O)C(=O)N[C@@H](CC(C)C)C(=O)O (stereo partly drawn) [Compound I, DTPA-DLys-Pro-(4-Gu)Phe-Arg-Pro-Tyr-Ile-Leu-OH] | 1.5 | 14.1 |  | % of compound present at 4 hours in urine ([1]; 37EC): 1.5%; % of compound present at 4 hours in serum ([2]; human serum, 37EC): 14.1%; pKd ([3]; Table 1): 8.07 |
| CC(C)C[C@H](NC(=O)[C@@H](NC(=O)[C@H](Cc1ccc(O)cc1)NC(=O)[C@@H]1CCCN1C(=O)[C@H](CCCNC(=N)N)NC(=O)C(Cc1ccc(NC(=N)N)cc1)NC(=O)[C@@H]1CCCN1C(=O)[C@@H](CCCCN)NC(=O)CN(CCN(CCN(CC(=O)O)CC(=O)O)CC(=O)O)CC(=O)O)C(C)(C)C)C(=O)O (stereo partly drawn) [Compound IX, DTPA-DLys-Pro-Phe(4-guanyl)-Arg-Pro-Tyr-tBuGly-Leu-OH] ({DTPA}-[dK]P[ξPhe(4-guanidino)]RPY[Tle]L-OH) | 51.1 | 72.0 | 7.90 | pIC50 [3]: 7.90 |
| CC(C)C[C@H](NC(=O)[C@@H](NC(=O)[C@H](Cc1ccc(O)cc1)NC(=O)[C@@H]1CCCN1C(=O)[C@H](CCCNC(=N)N)NC(=O)C(NC(=O)[C@@H]1CCCN1C(=O)C(NC(=O)CN(CCN(CCN(CC(=O)O)CC(=O)O)CC(=O)O)CC(=O)O)C1CCNCC1)C1CCN(C(=N)N)CC1)C(C)(C)C)C(=O)O (stereo partly drawn) [Compound XI, DTPA-PipGly-Pro-Gly(PipAm)-Arg-Pro-Tyr-tBuGly-Leu-OH] ({DTPA}-[ξGly(piperidin-4-yl)]P[ξGly(4-Pip(1-amidino))]RPY[Tle]L-OH) | 93.6 | 95.9 | 8.41 |  |
| CC(C)C[C@H](NC(=O)[C@@H](NC(=O)[C@H](Cc1ccc(O)cc1)NC(=O)[C@@H]1CCCN1C(=O)[C@H](CCCNC(=N)N)NC(=O)C(NC(=O)[C@@H]1CCCN1C(=O)[C@H](CCCCN)NC(=O)[C@H](CC(N)=O)NC(=O)[C@H](CCC(=O)O)NC(=O)[C@@H](Cc1ccc(O)cc1)NC(=O)CN(CCN(CCN(CC(=O)O)CC(=O)O)CC(=O)O)CC(=O)O)C1CCN(C(=N)N)CC1)C(C)(C)C)C(=O)O (stereo partly drawn) [Compound XIII, DTPA-DTyr-Glu-Asn-Lys-Pro-Gly(PipAm)-Arg-Pro-Tyr-tBuGly-Leu-OH] ({DTPA}-[dY]ENKP[ξGly(4-Pip(1-amidino))]RPY[Tle]L-OH) | 86.8 | 94.9 | 8.35 |  |
| CC(C)(C)[C@H](NC(=O)[C@H](Cc1ccc(O)cc1)NC(=O)[C@@H]1CCCN1C(=O)[C@H](CCCNC(=N)N)NC(=O)C(NC(=O)[C@@H]1CCCN1C(=O)[C@H](CCCCN)NC(=O)[C@H](CC(N)=O)NC(=O)[C@H](CCC(=O)O)NC(=O)[C@@H](Cc1ccc(O)cc1)NC(=O)CN(CCN(CCN(CC(=O)O)CC(=O)O)CC(=O)O)CC(=O)O)C1CCN(C(=N)N)CC1)C(=O)N[C@@H](CC1CCCCC1)C(=O)O (stereo partly drawn) [Compound XIV, DTPA-DTyr-Glu-Asn-Lys-Pro-Gly(PipAm)-Arg-Pro-Tyr-tBuGly-Cha-OH] ({DTPA}-[dY]ENKP[ξGly(4-Pip(1-amidino))]RPY[Tle][Cha]-OH) | 81.8 | 93.9 | 8.35 |  |
| CC[C@H](C)[C@H](NC(=O)[C@H](Cc1ccc(O)cc1)NC(=O)[C@@H]1CCCN1C(=O)[C@H](CCCN=C(N)N)NC(=O)[C@H](Cc1ccc(NC(=N)N)cc1)NC(=O)[C@@H]1CCCN1C(=O)[C@@H](CCCCN)NC(=O)CN(CCN(CCN(CC(=O)O)CC(=O)O)CC(=O)O)CC(=O)O)C(=O)N[C@@H](CC(C)C)C(=O)O [In-111-DTPA-DK-P-F(Gu)-R-P-Y-I-L, metal not drawn] |  |  |  | HPLC Evaluation of Urine Stability at 37EC, Urine, t = 0 [1]: 94.1%; remaining at 4 h [1, 4]: 1.5%; remaining at 4 h [2, 5]: 14.1%; HPLC Evaluation of Serum Stability at 37EC, Serum, t = 0 ([2]; human serum): 98.7% |
| CC(C)C[C@@H](CN[C@@H](CC(C)C)C(N)=O)NC(=O)[C@H](Cc1ccc(O)cc1)NC(=O)[C@@H]1CCCN1C(=O)[C@H](CCCNC(=N)N)NC(=O)[C@H](Cc1ccc(NC(=N)N)cc1)NC(=O)[C@@H]1CCCN1C(=O)[C@@H](CCCCN)NC(=O)CN(CCN(CCN(CC(=O)O)CC(=O)O)CC(=O)O)CC(=O)O [In-111-DTPA-DK-P-F(Gu)-R-P-Y-L(Ψ-CH2NH)-L-NH2, metal not drawn] ({DTPA}-[dK]P[Phe(4-guanidino)]RPY-X1) |  |  |  | remaining at 4 h [1, 6]: 95.7%; remaining at 4 h [2, 7]: 76.2% |
| CC(C)C[C@H](NC(=O)[C@@H](NC(=O)[C@H](Cc1ccc(O)cc1)NC(=O)[C@@H]1CCCN1C(=O)[C@H](CCCN=C(N)N)NC(=O)[C@H](Cc1ccc(NC(=N)N)cc1)NC(=O)[C@@H]1CCCN1C(=O)[C@@H](CCCCN)NC(=O)CN(CCN(CCN(CC(=O)O)CC(=O)O)CC(=O)O)CC(=O)O)C(C)(C)C)C(=O)O [In-111-DTPA-DK-P-F(Gu)-R-P-Y-tBuG-L, metal not drawn] ({DTPA}-[dK]P[Phe(4-guanidino)]RPY[Tle]L-OH) |  |  |  | remaining at 4 h [1, 6]: 51.1%; remaining at 4 h [2, 7]: 72% |
| CC[C@H](C)[C@H](NC(=O)[C@H](Cc1ccc(O)cc1)NC(=O)[C@@H]1CCCN1C(=O)[C@H](CCCNC(=N)N)NC(=O)[C@H](CCCNC(=N)N)NC(=O)CN(CCN(CCN(CC(=O)O)CC(=O)O)CC(=O)O)CC(=O)O)C(=O)N[C@@H](CC(C)C)C(=O)O [In-111-DTPA-R-R-P-Y-I-L, metal not drawn, reference compound] |  |  |  | HPLC Evaluation of Urine Stability at 37EC, Urine, t = 0 [1]: 96.7%; remaining at 4 h [1, 4]: 13%; remaining at 4 h [1, 6]: 14%; remaining at 4 h [2, 5]: 1.6%; HPLC Evaluation of Serum Stability at 37EC, Serum, t = 0 ([2]; human serum): 92% |
| DTPA-DLys-Pro-Aba(Apy)-Aba(Apy)-Pro-Tyr-Ile-Leu-OH ({DTPA-dK-Pro-Aba(Apy)-Aba(Apy)}-PYIL-OH; reading uncertain) |  |  | < 5.00 |  |

Reference: US7015306B2 (BioSynthema, Inc., priority 1999, dated 2006)
